Measured values reported in ChEMBL document CHEMBL4028801, “A multifactorial approach to hepatobiliary transporter assessment enables improved therapeutic compound development” (Toxicol Sci, 2013).
Structures can show the parent of a compound that is named as a salt.

Legend:
[1] = biological target: ATP-binding cassette sub-family C member 3 (Homo sapiens, UniProt O15438); test: Inhibition of human MRP3 overexpressed in Sf9 insect cell membrane vesicles assessed as uptake of [3H]-estradiol-17beta-D-glucuronide in presence of ATP and GSH measured after 10 mins by membrane vesicle transport assay; type: ADME, cell-based
[2] = biological target: ATP-binding cassette sub-family C member 2 (Homo sapiens, UniProt Q92887); test: Inhibition of human MRP2 overexpressed in Sf9 cell membrane vesicles assessed as uptake of [3H]-estradiol-17beta-D-glucuronide in presence of ATP and GSH measured after 20 mins by membrane vesicle transport assay
[3] = biological target: T1, ATP-binding cassette sub-family C member 4 (Homo sapiens, UniProt O15439); test: Inhibition of human MRP4 overexpressed in Sf9 cell membrane vesicles assessed as uptake of [3H]-estradiol-17beta-D-glucuronide in presence of ATP and GSH measured after 20 mins by membrane vesicle transport assay; type: ADME, cell-based
T1 sequence (O15439 whole entry): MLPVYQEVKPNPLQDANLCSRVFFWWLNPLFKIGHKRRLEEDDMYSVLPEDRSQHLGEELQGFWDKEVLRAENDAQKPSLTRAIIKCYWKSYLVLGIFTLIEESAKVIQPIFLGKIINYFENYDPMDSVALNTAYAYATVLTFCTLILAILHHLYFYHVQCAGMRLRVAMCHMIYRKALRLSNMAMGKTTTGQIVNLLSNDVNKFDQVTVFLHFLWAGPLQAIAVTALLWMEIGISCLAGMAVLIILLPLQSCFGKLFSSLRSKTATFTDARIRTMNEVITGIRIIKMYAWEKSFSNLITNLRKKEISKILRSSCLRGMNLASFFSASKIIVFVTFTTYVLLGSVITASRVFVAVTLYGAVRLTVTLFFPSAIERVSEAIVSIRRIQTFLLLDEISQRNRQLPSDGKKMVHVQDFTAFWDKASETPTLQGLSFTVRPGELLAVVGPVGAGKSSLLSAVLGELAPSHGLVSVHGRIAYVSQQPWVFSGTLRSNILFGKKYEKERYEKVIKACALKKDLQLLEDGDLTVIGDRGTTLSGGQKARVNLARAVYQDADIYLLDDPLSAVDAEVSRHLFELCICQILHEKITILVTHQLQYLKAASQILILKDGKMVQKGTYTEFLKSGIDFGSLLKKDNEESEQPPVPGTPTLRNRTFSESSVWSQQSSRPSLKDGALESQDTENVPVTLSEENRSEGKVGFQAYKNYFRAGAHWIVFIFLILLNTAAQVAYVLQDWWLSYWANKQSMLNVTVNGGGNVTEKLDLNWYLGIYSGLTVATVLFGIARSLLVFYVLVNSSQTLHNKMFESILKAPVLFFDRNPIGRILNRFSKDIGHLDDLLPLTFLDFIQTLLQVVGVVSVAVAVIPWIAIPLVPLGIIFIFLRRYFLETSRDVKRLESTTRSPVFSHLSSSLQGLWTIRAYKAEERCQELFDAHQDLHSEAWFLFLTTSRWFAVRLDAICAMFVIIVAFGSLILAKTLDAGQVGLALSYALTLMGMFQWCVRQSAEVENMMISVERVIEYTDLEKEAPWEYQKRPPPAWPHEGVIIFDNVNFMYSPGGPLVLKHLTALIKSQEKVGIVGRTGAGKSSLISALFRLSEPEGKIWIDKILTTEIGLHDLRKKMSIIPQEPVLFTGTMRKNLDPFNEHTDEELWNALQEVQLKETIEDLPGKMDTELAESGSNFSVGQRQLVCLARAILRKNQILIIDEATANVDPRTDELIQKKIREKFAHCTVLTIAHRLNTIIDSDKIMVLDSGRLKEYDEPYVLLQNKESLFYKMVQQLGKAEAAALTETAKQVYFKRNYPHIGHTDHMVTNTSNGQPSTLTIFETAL

Chain of ATP-binding cassette sub-family C member 3 (O15438 whole entry): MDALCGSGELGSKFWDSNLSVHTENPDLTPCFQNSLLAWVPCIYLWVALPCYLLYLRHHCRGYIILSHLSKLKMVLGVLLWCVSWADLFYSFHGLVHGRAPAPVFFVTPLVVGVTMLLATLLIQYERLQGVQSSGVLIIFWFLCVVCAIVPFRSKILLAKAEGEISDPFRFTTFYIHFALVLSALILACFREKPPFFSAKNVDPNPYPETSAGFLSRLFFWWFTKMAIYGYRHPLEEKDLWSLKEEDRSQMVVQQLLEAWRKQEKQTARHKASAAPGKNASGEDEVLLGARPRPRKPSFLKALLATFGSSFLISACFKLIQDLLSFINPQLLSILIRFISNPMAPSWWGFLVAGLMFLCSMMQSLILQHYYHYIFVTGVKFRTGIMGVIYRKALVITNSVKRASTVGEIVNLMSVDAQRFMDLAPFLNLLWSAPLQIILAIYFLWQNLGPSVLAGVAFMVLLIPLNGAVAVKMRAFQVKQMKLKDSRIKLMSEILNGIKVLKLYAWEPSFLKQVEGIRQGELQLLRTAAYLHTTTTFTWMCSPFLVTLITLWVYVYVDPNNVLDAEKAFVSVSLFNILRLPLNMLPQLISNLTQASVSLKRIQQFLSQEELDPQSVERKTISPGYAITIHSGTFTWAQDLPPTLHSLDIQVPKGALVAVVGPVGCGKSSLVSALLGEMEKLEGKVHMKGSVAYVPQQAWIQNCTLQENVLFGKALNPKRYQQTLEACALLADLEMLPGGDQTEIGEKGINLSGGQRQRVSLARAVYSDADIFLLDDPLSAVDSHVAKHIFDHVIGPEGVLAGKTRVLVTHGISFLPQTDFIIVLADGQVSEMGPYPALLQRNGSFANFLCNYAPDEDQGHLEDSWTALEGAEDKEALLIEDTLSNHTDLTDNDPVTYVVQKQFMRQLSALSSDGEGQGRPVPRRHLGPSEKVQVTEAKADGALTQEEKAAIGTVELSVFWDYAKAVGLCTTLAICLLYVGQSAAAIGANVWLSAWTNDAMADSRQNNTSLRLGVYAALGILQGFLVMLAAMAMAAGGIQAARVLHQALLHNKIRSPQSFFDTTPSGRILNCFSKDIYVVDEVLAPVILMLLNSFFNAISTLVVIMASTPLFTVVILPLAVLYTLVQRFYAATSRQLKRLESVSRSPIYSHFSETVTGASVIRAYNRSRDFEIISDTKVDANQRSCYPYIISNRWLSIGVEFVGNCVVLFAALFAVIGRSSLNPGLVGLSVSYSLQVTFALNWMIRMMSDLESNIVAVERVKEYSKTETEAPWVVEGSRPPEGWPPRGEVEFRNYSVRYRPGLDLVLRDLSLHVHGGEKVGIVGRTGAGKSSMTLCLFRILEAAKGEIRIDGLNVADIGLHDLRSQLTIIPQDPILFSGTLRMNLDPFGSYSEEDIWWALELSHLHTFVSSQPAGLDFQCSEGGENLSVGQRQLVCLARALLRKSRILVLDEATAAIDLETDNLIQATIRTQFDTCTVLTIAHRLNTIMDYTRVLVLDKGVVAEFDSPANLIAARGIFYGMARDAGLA
Chain of ATP-binding cassette sub-family C member 2 (Q92887 whole entry): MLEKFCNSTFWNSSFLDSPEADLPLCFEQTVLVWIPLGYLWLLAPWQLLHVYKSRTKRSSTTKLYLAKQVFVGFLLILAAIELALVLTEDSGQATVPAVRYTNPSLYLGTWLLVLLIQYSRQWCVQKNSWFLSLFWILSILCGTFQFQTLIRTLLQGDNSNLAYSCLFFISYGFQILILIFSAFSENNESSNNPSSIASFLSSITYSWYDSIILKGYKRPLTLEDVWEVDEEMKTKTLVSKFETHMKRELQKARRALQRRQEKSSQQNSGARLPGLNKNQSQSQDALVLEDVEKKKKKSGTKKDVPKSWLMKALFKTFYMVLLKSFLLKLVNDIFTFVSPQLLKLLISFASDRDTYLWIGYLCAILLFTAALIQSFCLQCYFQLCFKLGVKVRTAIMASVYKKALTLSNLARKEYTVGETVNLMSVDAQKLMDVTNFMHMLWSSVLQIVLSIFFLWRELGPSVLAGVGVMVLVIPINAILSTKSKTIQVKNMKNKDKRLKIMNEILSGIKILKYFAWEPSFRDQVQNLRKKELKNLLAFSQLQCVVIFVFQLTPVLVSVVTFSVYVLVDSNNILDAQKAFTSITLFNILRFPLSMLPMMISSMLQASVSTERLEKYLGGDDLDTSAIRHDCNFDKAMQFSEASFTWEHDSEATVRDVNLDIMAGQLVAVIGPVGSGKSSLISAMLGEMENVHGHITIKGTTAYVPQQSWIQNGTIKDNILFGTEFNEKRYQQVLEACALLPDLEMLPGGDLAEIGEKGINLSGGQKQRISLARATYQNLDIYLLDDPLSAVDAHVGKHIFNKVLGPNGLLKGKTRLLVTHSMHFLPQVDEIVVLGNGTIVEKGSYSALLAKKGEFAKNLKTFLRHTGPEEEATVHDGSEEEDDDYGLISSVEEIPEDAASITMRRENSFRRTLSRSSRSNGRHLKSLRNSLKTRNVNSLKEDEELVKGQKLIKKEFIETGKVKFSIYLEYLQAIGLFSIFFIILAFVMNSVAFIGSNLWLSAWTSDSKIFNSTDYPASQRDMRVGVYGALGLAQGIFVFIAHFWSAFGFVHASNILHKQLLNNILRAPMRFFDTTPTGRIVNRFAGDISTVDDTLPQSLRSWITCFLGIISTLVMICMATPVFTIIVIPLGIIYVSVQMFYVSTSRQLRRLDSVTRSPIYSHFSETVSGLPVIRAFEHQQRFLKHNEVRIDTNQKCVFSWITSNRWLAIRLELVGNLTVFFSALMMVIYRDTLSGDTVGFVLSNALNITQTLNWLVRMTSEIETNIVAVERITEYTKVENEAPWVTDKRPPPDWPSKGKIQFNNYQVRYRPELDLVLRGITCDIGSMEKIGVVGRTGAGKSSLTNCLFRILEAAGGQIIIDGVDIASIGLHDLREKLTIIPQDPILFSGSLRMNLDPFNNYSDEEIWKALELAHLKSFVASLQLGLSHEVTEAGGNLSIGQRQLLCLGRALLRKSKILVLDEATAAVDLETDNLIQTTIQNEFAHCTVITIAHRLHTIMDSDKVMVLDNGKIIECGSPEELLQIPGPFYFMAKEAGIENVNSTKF

Row | SMILES | IC50 [1] | IC50 [2] | IC50 [3]
1 | C(=C\c1ccccc1)/CN1CCN(C(c2ccccc2)c2ccccc2)CC1 [CINNARIZINE] | > 133 µM | > 133 µM | > 133 µM
2 | CC[C@@H](CO)NCCN[C@@H](CC)CO [ETHAMBUTOL HYDROCHLORIDE] | 88.2 µM | > 133 µM | > 133 µM
3 | O=C(N[C@H](CO)[C@H](O)c1ccc([N+](=O)[O-])cc1)C(Cl)Cl [CHLORAMPHENICOL] | > 133 µM | – | > 133 µM
4 | C#C[C@@]1(O)CC[C@H]2[C@@H]3CCC4=CC(=O)CC[C@@H]4[C@H]3CC[C@@]21C | > 133 µM | > 133 µM | > 133 µM
5 | Clc1ccccc1CN1CCc2sccc2C1 [TICLOPIDINE HYDROCHLORIDE] | > 133 µM | > 133 µM | > 133 µM
6 | NCCCC[C@H](N[C@@H](CCc1ccccc1)C(=O)O)C(=O)N1CCC[C@H]1C(=O)O [LISINOPRIL ANHYDROUS] | > 133 µM | > 133 µM | > 133 µM
7 | CN(C)CCCN1c2ccccc2CCc2ccc(Cl)cc21 [CLOMIPRAMINE] | > 133 µM | > 133 µM | > 133 µM
8 | OC(CCN1CCCC1)(c1ccccc1)C1CCCCC1 (stereo unspecified) [PROCYCLIDINE] | > 133 µM | > 133 µM | > 133 µM
9 | O=C(O)c1cc(/N=N/c2ccc(S(=O)(=O)Nc3ccccn3)cc2)ccc1O [SULFASALAZINE] | 14.6 µM | – | 1.5 µM
10 | Cn1cc[nH]c1=S [METHIMAZOLE] | > 133 µM | > 133 µM | > 133 µM
11 | Nc1ccc(S(=O)(=O)c2ccc(N)cc2)cc1 [DAPSONE] | > 133 µM | > 133 µM | > 133 µM
12 | CCN(CC)C(=S)SSC(=S)N(CC)CC | > 133 µM | > 133 µM | > 133 µM
13 | C=C(CC)C(=O)c1ccc(OCC(=O)O)c(Cl)c1Cl [ETHACRYNIC ACID] | 95.9 µM | 3.85 µM | > 133 µM
14 | NS(=O)(=O)c1cc(C(=O)O)c(NCc2ccco2)cc1Cl [FUROSEMIDE] | > 133 µM | > 133 µM | > 133 µM
15 | Clc1ccc2c(c1)CCc1cccnc1C2=C1CCNCC1 [DESLORATADINE] | > 133 µM | > 133 µM | > 133 µM
16 | N#C[C@@H]1C[C@@H]2C[C@@H]2N1C(=O)[C@@H](N)C12CC3CC(CC(O)(C3)C1)C2 [SAXAGLIPTIN HYDROCHLORIDE] | > 133 µM | > 133 µM | > 133 µM
17 | CC[C@H]1OC(=O)[C@H](C)[C@@H](O[C@H]2C[C@@](C)(OC)[C@@H](O)[C@H](C)O2)[C@H](C)[C@@H](O[C@@H]2O[C@H](C)C[C@H](N(C)C)[C@H]2O)[C@](C)(O)C[C@@H](C)C(=O)[C@H](C)[C@@H](O)[C@]1(C)O | > 133 µM | > 133 µM | 68.2 µM
18 | CN1CCN(CCCN2c3ccccc3Sc3ccc(Cl)cc32)CC1 [PROCHLORPERAZINE] | > 133 µM | > 133 µM | > 133 µM
19 | CCN(CC)CCNC(=O)c1c(C)[nH]c(/C=C2\C(=O)Nc3ccc(F)cc32)c1C | > 133 µM | > 133 µM | > 133 µM
20 | C=C(c1ccc(C(=O)O)cc1)c1cc2c(cc1C)C(C)(C)CCC2(C)C [BEXAROTENE] | > 133 µM | > 133 µM | > 133 µM
21 | CC(C)NCC(O)COc1cccc2ccccc12 (stereo unspecified) [PROPRANOLOL] | > 133 µM | > 133 µM | > 133 µM
22 | OC(Cn1cncn1)(Cn1cncn1)c1ccc(F)cc1F [FLUCONAZOLE] | > 133 µM | > 133 µM | > 133 µM
23 | CN(C)[C@@H]1C(O)=C(C(N)=O)C(=O)[C@@]2(O)C(O)=C3C(=O)c4c(O)cccc4[C@@](C)(O)[C@H]3C[C@@H]12 [TETRACYCLINE] | > 133 µM | > 133 µM | > 133 µM
24 | CC/C(=C(\c1ccccc1)c1ccc(OCCN(C)C)cc1)c1ccccc1 [TAMOXIFEN] | > 133 µM | > 133 µM | > 133 µM

Row | SMILES | IC50 [1] | IC50 [2] | IC50 [3]
25 | C[C@]12C=CC(=O)C=C1CC[C@@H]1[C@@H]2[C@@H](O)C[C@@]2(C)[C@H]1CC[C@]2(O)C(=O)CO [PREDNISOLONE] | > 133 µM | > 133 µM | > 133 µM
26 | O=c1[nH]cnc2c1ncn2[C@H]1CC[C@@H](CO)O1 [DIDANOSINE] | > 133 µM | > 133 µM | > 133 µM
27 | CCCCC[C@H](O)/C=C/[C@H]1[C@H](O)CC(=O)[C@@H]1CCCCCCC(=O)O [ALPROSTADIL] | 26.9 µM | > 133 µM | 2.3 µM
28 | CCn1cc(C(=O)O)c(=O)c2cc(F)c(N3CCNCC3)cc21 [NORFLOXACIN] | > 133 µM | > 133 µM | > 133 µM
29 | COc1ccc(CCN(C)CCCC(C#N)(c2ccc(OC)c(OC)c2)C(C)C)cc1OC (stereo unspecified) | > 133 µM | > 133 µM | –
30 | CC1(COc2ccc(CC3SC(=O)NC3=O)cc2)CCCCC1 (stereo unspecified) [CIGLITAZONE] | > 133 µM | > 133 µM | > 133 µM
31 | CC(=O)Nc1nnc(S(N)(=O)=O)s1 [ACETAZOLAMIDE] | > 133 µM | > 133 µM | > 133 µM
32 | O=C1CCc2ccc(OCCCCN3CCN(c4cccc(Cl)c4Cl)CC3)cc2N1 [ARIPIPRAZOLE] | > 133 µM | > 133 µM | > 133 µM
33 | CC1=C(C(=O)O)N2C(=O)[C@@H](NC(=O)[C@H](N)c3ccc(O)cc3)[C@H]2SC1 [CEFADROXIL] | > 133 µM | > 133 µM | > 133 µM
34 | COC(=O)Nc1nc2ccc(C(=O)c3ccccc3)cc2[nH]1 [MEBENDAZOLE] | > 133 µM | > 133 µM | 15.5 µM
35 | CC[C@H]1OC(=O)[C@H](C)[C@@H](O[C@H]2C[C@@](C)(OC)[C@@H](O)[C@H](C)O2)[C@H](C)[C@@H](O[C@@H]2O[C@H](C)C[C@H](N(C)C)[C@H]2O)[C@](C)(O)C[C@@H](C)C(=O)[C@H](C)[C@@H](O)[C@]1(C)O [ERYTHROMYCIN] | > 133 µM | > 133 µM | > 133 µM
36 | CN(C)CCC=C1c2ccccc2COc2ccccc21 [DOXEPIN] | > 133 µM | > 133 µM | > 133 µM
37 | CN(C)C(=N)N=C(N)N [METFORMIN] | > 133 µM | > 133 µM | > 133 µM
38 | Nc1ccn([C@@H]2O[C@H](CO)[C@@H](O)[C@@H]2O)c(=O)n1 [CYTARABINE] | > 133 µM | > 133 µM | > 133 µM
39 | COCCCC/C(=N\OCCN)c1ccc(C(F)(F)F)cc1 [FLUVOXAMINE MALEATE] | > 133 µM | > 133 µM | > 133 µM
40 | C[C@H](N[C@@H](CCc1ccccc1)C(=O)O)C(=O)N1CCC[C@H]1C(=O)O [ENALAPRILAT ANHYDROUS] | > 133 µM | > 133 µM | > 133 µM
41 | CO[C@@]1(NC(=O)C2SC(=C(C(N)=O)C(=O)O)S2)C(=O)N2C(C(=O)O)=C(CSc3nnnn3C)CS[C@@H]21 (stereo partly specified) [CEFOTETAN] | 79 µM | – | –
42 | C[C@]12CC[C@@H]3c4ccc(O)cc4CC[C@H]3[C@@H]1CC[C@@H]2O [ESTRADIOL] | > 133 µM | – | > 133 µM
43 | CCN(CC)CCNC(=O)c1ccc(N)cc1 [PROCAINAMIDE] | > 133 µM | > 133 µM | > 133 µM
44 | Cc1ccc(Nc2c(F)cccc2Cl)c(CC(=O)O)c1 [LUMIRACOXIB] | > 133 µM | > 133 µM | > 133 µM
45 | CCS(=O)(=O)CCn1c([N+](=O)[O-])cnc1C [TINIDAZOLE] | > 133 µM | > 133 µM | > 133 µM
46 | CCN(CC)CC(=O)Nc1c(C)cccc1C [LIDOCAINE] | > 133 µM | > 133 µM | > 133 µM
47 | O=C(O)CCc1nc(-c2ccccc2)c(-c2ccccc2)o1 [OXAPROZIN] | > 133 µM | > 133 µM | –
48 | O=C(CCCN1CCC(O)(c2ccc(Cl)cc2)CC1)c1ccc(F)cc1 [HALOPERIDOL] | > 133 µM | – | > 133 µM
